Like-named read-outs stand apart in the source and are kept apart here.
Key:
Assay type in all cases: in vivo
[1] = test system: brown rice planthopper having a low susceptibility to insecticides; set-up: key to Brown rice planthopper, Kumamoto low susceptibility (rice soil drenching), effect: mortality %, dead/(live+dead) ×100; conditions: for Mortality: all the lines (susceptible line, field-collected lines I and II); for Insecticidal effects (mortality), brown rice planthopper second-instar larvae: soil drenching treatment
Description: (§1) Rice seedlings grown in pots were subjected to soil drenching treatment with solutions of the inventive compounds at a predetermined concentration prepared to 10% acetone/water. Three days after treatment, ten second-instar brown rice planthopper larvae having a low susceptibility to insecticides were released onto each seedling. The seedlings and insects were then held in an incubation chamber at 25° C. (16-hour period of light, 8-hour dark period). Three days after released, the numbers of live and dead insects were counted, and the mortality was calculated from the following formula. The test was carried out as two replications. Mortality (%)=[number of dead insects/(number of live insects+number of dead insects)]×100
The pests used in this test were insects that had been raised indoors for successive generations over a long period of time (susceptible line), and insects that had been raised indoors for successive generations after being collected (I) in 2007 within Kumamoto Prefecture and (II) in 2005 within Fukuoka Prefecture (field-collected lines).

small brown planthopper [2] = assay: whole plant or invertebrate; conditions: Laodelphax striatellus, in Triticum aestivum, 96 h
Method in brief: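 Roots of 48-h wheat seedlings took up compound in 10% acetone/water for 72 h, then ten second-instar larvae were released per seedling and held at 25 °C (16 h light/8 h dark). Mortality counted four days after release; two replications.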

cotton aphid = assay: whole plant or invertebrate; conditions: Aphis gossypii, foliar
Method in brief: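 Cucumber leaf discs (2.0 cm) sprayed with compound in 50% acetone/water with 0.05% Tween 20, air-dried, then infested with first-instar cotton aphids. Held at 25 °C under 16 h light/8 h dark; mortality counted after 3 days, two replicates.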

small brown planthopper [3] = assay: whole plant or invertebrate; conditions: Laodelphax striatellus, foliar
Description: Rice seedlings grown in pots were subjected to the foliar application of solutions of the inventive compounds at a predetermined concentration prepared to 50% acetone/water (containing 0.05% Tween 20). The treated seedlings were air dried, following which second-instar larvae were released onto the seedlings. The seedlings and larvae were then held in an incubation chamber at 25° C. (16-hour period of light, 8-hour dark period). Three days after released, the numbers of live and dead insects were counted, and the mortality was calculated from the following formula. This was a two-replication test. Mortality (%)=[number of dead insects/(number of live insects+number of dead insects)]×100

greenhouse whitefly = assay: whole plant or invertebrate; conditions: Cucumis sativus, foliar, 336 h
Description: Adult greenhouse whiteflies were released onto cucumber plants grown in pots, and allowed to laid eggs overnight. One day after the start of oviposition, the adults were removed, and the plants and eggs were held in an incubation chamber at 25° C. (16-hour period of light, 8-hour dark period). Three days after the end of oviposition, leaf discs 2.0 cm in diameter were cut from the cucumber plants and, after confirming oviposition thereon, the leaf discs were sprayed with solutions of the inventive compounds at a predetermined concentration prepared to 50% acetone/water (containing 0.05% Tween 20). After spraying, the treated leaf discs were held in an incubation chamber at 25° C. (16-hour period of light, 8-hour dark period). Fourteen days after spraying, the numbers of live and dead insects were counted, and the mortality was calculated from the following formula. This was a two-replication test. Mortality (%)=[(number of oviposited eggs−number of live insects)/number of oviposited eggs]×100

rice water weevil = assay: Rice water weevil control test (soil drenching treatment); conditions: 0.1 mg/seedling soil drenching of rice seedlings, adults, 3 days after release
Description: as §1, with “acetone/water. Two” for “acetone/water. Three”, “treatment, five adult” for “treatment, ten second-instar brown”, “rice water weevils” for “rice planthopper larvae having a low susceptibility to insecticides”

small brown planthopper [4] = assay: whole plant or invertebrate; conditions: Laodelphax striatellus, 72 h
Method in brief: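 Rice seedlings in pots soil-drenched with compound at a set concentration in 10% acetone/water; ten second-instar larvae released per seedling 3 days later. Held at 25° C. (16 h light/8 h dark) and scored live/dead 3 days after release. Mortality (%) = dead/(live+dead)×100; two replications.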

[5] = read-out: Insecticidal effects (mortality), small brown planthopper second-instar larvae
[6] = read-out: Insecticidal effects (mortality), cotton aphid first-instar larvae
[7] = soil, read-out: Insecticidal effects (mortality), small brown planthopper second-instar larvae

`O=C(N=c1ccccn1Cc1ccc(Cl)nc1)C(F)(F)F` [Compound 212, N-[1-((6-chloropyridin-3-yl)methyl)pyridin-2(1H)-ylidene]-2,2,2-trifluoroacetamide] was tested, and the Mortality ([1]; 0.005 mg/seedling soil drenching) was “at least 90%”, the Mortality ([1]; 0.05 mg/seedling soil drenching) was 100% and the “Brown rice planthopper, Kumamoto low susceptibility (rice soil drenching), effect” value ([1]; 0.005 mg/pot) was 90. For the same molecule, the “Brown rice planthopper, Kumamoto low susceptibility (rice soil drenching), effect” value ([1]; 0.05 mg/pot) was 100, the “Insecticidal effects (mortality), brown rice planthopper second-instar larvae” value ([1]; 0.02 mg/pot) was 100 and the “Insecticidal effects (mortality), brown rice planthopper second-instar larvae” value ([1]; 0.05 mg/pot) was 100. The mortality at 20 µg/seedling (small brown planthopper [2]) was ≥ 80%, the mortality at 0.0078 mg/seedling (small brown planthopper [2]; [5]) was 50% and the mortality at 0.016 mg/seedling (small brown planthopper [2]; [5]) was 50%. For the same molecule, the mortality at 0.031 mg/seedling (small brown planthopper [2]; [5]) was 100%, the mortality at 0.063 mg/seedling (small brown planthopper [2]; [5]) was 100% and the mortality at 0.125 mg/seedling (small brown planthopper [2]; [5]) was 100%. For the same molecule, the mortality at 0.25 mg/seedling (small brown planthopper [2]; [5]) was 100%, the mortality at 0.5 mg/seedling (small brown planthopper [2]; [5]) was 100% and the mortality at 2 mg/seedling (small brown planthopper [2]; [5]) was 100%. It also gave a mortality at 20 mg/seedling (small brown planthopper [2]; [5]) of 100%, a mortality at 1.25 ppm (cotton aphid; [6]) of 100% and a mortality at 5 ppm (cotton aphid; [6]) of 95%. For the same molecule, the mortality at 20 ppm (cotton aphid; [6]) was 100%, the mortality at 100 ppm (cotton aphid; [6]) was 100% and the mortality at 500 ppm (cotton aphid; [6]) was 100%. For the same molecule, the mortality at 20 ppm (cotton aphid; in Cucumis sativus, 72 h) was ≥ 80%, the mortality at 100 ppm (cotton aphid; in Cucumis sativus, 72 h) was ≥ 80% and the mortality at 500 ppm (cotton aphid; in Cucumis sativus, 72 h) was ≥ 80%. For the same molecule, the mortality at 0.313 ppm (small brown planthopper [3]; [5]) was 75%, the mortality at 1.25 ppm (small brown planthopper [3]; [5]) was 100% and the mortality at 5 ppm (small brown planthopper [3]; [5]) was 100%. For the same molecule, the mortality at 100 ppm (small brown planthopper [3]; in Oryza sativa, 72 h) was ≥ 80%, the mortality at 100 ppm (greenhouse whitefly) was ≥ 80% and the Mortality (rice water weevil) was “at least 80%”. The pest or weed control at 0.002 mg/pot (small brown planthopper [4]; rice soil drenching, 0.002 mg/pot (Table 13), read-out: Small brown planthopper (rice soil drenching), effect) was 85%, the pest or weed control at 0.005 mg/pot (small brown planthopper [4]; rice soil drenching, 0.005 mg/pot (Table 13), read-out: Small brown planthopper (rice soil drenching), effect) was 95% and the pest or weed control at 0.01 mg/pot (small brown planthopper [4]; rice soil drenching, 0.01 mg/pot (Table 13), read-out: Small brown planthopper (rice soil drenching), effect) was 100%. For the same molecule, the pest or weed control at 0.05 mg/pot (small brown planthopper [4]; rice soil drenching, 0.05 mg/pot (Table 13), read-out: Small brown planthopper (rice soil drenching), effect) was 100%, the mortality at 0.005 mg/seedling (small brown planthopper [4]; soil) was 95% and the mortality at 0.05 mg/seedling (small brown planthopper [4]; soil) was ≥ 80%. The mortality at 0.002 mg/pot (small brown planthopper [4]; [7]) was 85%, the mortality at 0.005 mg/pot (small brown planthopper [4]; [7]) was 95% and the mortality at 0.01 mg/pot (small brown planthopper [4]; [7]) was 100%. For the same molecule, the mortality at 0.05 mg/pot (small brown planthopper [4]; [7]) was 100%.
